# Measured values: the supplement of paper PMC11451515
# System: NOMO1
# Assay: cell viability relative to DMSO control; higher = less cytotoxic
# Details: 48 h
# Method in brief: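 In 1536-well plates, 5 μl of leukemia cells were seeded per well: 500 cells/well for NOMO1 or SEM and 1000 cells/well for P12-Ichikawa. Each line had first been adapted for at least four passages in each medium. Library compounds in DMSO were pin-dosed at 11 threefold concentrations between 47 μM and 0.79 nM, and CellTiter-Glo One luminescence was read after 48 h at 37°C. Viability is a per-plate percentage relative to DMSO wells, with cell-free wells as background.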
# [1] = HPLM + 10% dialyzed FBS, 0.000781 µM
# [2] = HPLM + 10% dialyzed FBS, 0.00234 µM
# [3] = HPLM + 10% dialyzed FBS, 0.00702 µM
# [4] = HPLM + 10% dialyzed FBS, 0.0211 µM
# [5] = HPLM + 10% dialyzed FBS, 0.0632 µM
# [6] = HPLM + 10% dialyzed FBS, 0.19 µM
# [7] = HPLM + 10% dialyzed FBS, 0.569 µM
# [8] = HPLM + 10% dialyzed FBS, 1.71 µM
# [9] = HPLM + 10% dialyzed FBS, 5.12 µM
# [10] = HPLM + 10% dialyzed FBS, 15.4 µM
# [11] = HPLM + 10% dialyzed FBS, 46.1 µM
# [12] = RPMI 5 mM glucose + 10% FBS, 0.000781 µM
# [13] = RPMI 5 mM glucose + 10% FBS, 0.00234 µM
# [14] = RPMI 5 mM glucose + 10% FBS, 0.00702 µM
# [15] = RPMI 5 mM glucose + 10% FBS, 0.0211 µM
# [16] = RPMI 5 mM glucose + 10% FBS, 0.0632 µM
# [17] = RPMI 5 mM glucose + 10% FBS, 0.19 µM
# [18] = RPMI 5 mM glucose + 10% FBS, 0.569 µM
# [19] = RPMI 5 mM glucose + 10% FBS, 1.71 µM
# [20] = RPMI 5 mM glucose + 10% FBS, 5.12 µM
# [21] = RPMI 5 mM glucose + 10% FBS, 15.4 µM
# [22] = RPMI 5 mM glucose + 10% FBS, 46.1 µM
# [23] = RPMI 5 mM glucose + 10% dialyzed FBS, 0.000781 µM
# [24] = RPMI 5 mM glucose + 10% dialyzed FBS, 0.00234 µM
# [25] = RPMI 5 mM glucose + 10% dialyzed FBS, 0.00702 µM
# [26] = RPMI 5 mM glucose + 10% dialyzed FBS, 0.0211 µM
# [27] = RPMI 5 mM glucose + 10% dialyzed FBS, 0.0632 µM
# [28] = RPMI 5 mM glucose + 10% dialyzed FBS, 0.19 µM
# [29] = RPMI 5 mM glucose + 10% dialyzed FBS, 0.569 µM
# [30] = RPMI 5 mM glucose + 10% dialyzed FBS, 1.71 µM
# [31] = RPMI 5 mM glucose + 10% dialyzed FBS, 5.12 µM
# [32] = RPMI 5 mM glucose + 10% dialyzed FBS, 15.4 µM
# [33] = RPMI 5 mM glucose + 10% dialyzed FBS, 46.1 µM
SMILES,cell viability [1] [%],cell viability [2] [%],cell viability [3] [%],cell viability [4] [%],cell viability [5] [%],cell viability [6] [%],cell viability [7] [%],cell viability [8] [%],cell viability [9] [%],cell viability [10] [%],cell viability [11] [%],cell viability [12] [%],cell viability [13] [%],cell viability [14] [%],cell viability [15] [%],cell viability [16] [%],cell viability [17] [%],cell viability [18] [%],cell viability [19] [%],cell viability [20] [%],cell viability [21] [%],cell viability [22] [%],cell viability [23] [%],cell viability [24] [%],cell viability [25] [%],cell viability [26] [%],cell viability [27] [%],cell viability [28] [%],cell viability [29] [%],cell viability [30] [%],cell viability [31] [%],cell viability [32] [%],cell viability [33] [%]
O=C(O)CCC1CCC(c2cc(F)ccc2F)([S+](=O)([O-])c2ccc(Cl)cc2)CC1 (stereo not drawn),98.6,117,137,124,140,139,146,85.2,30.5,35.4,34,122,115,125,124,117,146,126,64,25.2,21.7,23.8,109,137,104,129,126,137,125,102,28.5,33,28.2
CC1CNc2c(cccc2[S+](=O)([O-])N[C@@H](CCCNC(=N)N)C(=O)N2CC[C@@H](C)C[C@@H]2C(=O)O)C1 (stereo partly drawn),117,101,106,106,104,94.9,106,114,101,112,123,98.3,87.9,99.4,96.9,103,98.2,100,93.3,96.6,100,95.1,86.3,87.7,101,107,97.6,94.3,101,110,99.6,111,102
CC1(C)O[C@@H]2C[C@H]3[C@@H]4C[C@H](F)C5=CC(=O)C=C[C@]5(C)[C@@]4(F)[C@@H](O)C[C@]3(C)[C@]2(C(=O)CO)O1,105,112,121,122,121,101,101,118,112,108,94,115,101,108,108,112,114,106,102,104,97.9,91.7,109,109,98.3,114,112,102,96.7,102,110,97.8,86.5
CNCCCC12CCC(c3ccccc31)c1ccccc12,106,102,107,110,111,99.9,101,90,95.2,63.5,18.3,104,94.9,92.2,97.2,95.2,84.4,85.8,98.3,79.2,80.9,60.6,94.5,87.9,88.2,106,91.6,91,85.1,94,76.2,74.4,38.4
Cc1nc2cnc3ccc(C#Cc4cccnc4)cc3c2n1-c1ccc(C(C)(C)C#N)cc1,72.6,84.9,82.3,83.2,50.2,59.6,38.7,44.8,43.3,36.3,8.48,65,78.6,69.6,81.1,61.8,62.7,32,47.1,44.1,38.6,7.85,66.4,81.6,91.9,84.9,56.7,60.7,30.4,48.8,40.1,48.4,9.18
CCN1CCN(c2ccc(Nc3cc(N(C)C(=O)Nc4c(Cl)c(OC)cc(OC)c4Cl)ncn3)cc2)CC1,103,120,124,124,102,117,98.8,90.9,41.7,25.9,11.6,119,131,114,118,110,118,121,111,63.3,34.3,15.9,103,106,119,116,130,103,111,108,68.8,32.7,14.9
CC(C)(C)NC(=O)Nc1cccc(Nc2ncc(F)c(NC(C)(C)CO)n2)c1,99.9,115,133,140,112,137,122,130,127,111,108,123,115,127,112,135,112,120,133,111,69.8,98.4,,,,,,,,,,,
CCOC(=O)c1ccc(OC(=O)CCCCCNC(=N)N)cc1,126,115,122,116,137,128,127,84.6,91.8,62.4,55,117,119,124,114,131,128,114,132,77.3,83,104,116,110,135,134,114,142,137,154,85.7,81.8,91.2
